Test results reported in patent US10538554B2, “Peptides and uses therefor as antiviral agents” (priority 2015, dated 2020).
Read-outs that look alike come from different tables or passages of the source. Bridge positions count the residues as written; N and C are the ends. Square brackets hold non-standard residues; d marks the D form. Peptide text beside a SMILES is read from it.

Columns and labels:
H3N8 A/Miami/2/63 = conditions: A/Miami/2/63, 48 h
[1] = test system: H1N1 A1/Malaysia/302/1954; conditions: A1/Malaysia/302/1954, 48 h
H1N1 A/NY/18/2009 = conditions: A/NY/18/2009, 48 h; for % Inhibition Pdm 2009: 10 μM
H9N2 A/Iran/16/2000 = conditions: 48 h
H1N1 A/PR/8/1934 [2] = conditions: A/PR/8/1934, 48 h; for % Inhibition: 1 μM; for % Inhibition PR/8: 10 μM
H3N2 A/HK/8/1968 = conditions: A/HK/8/1968, 48 h
[3] = test system: Influenza B/MALAYSIA/2506/04
[4] = test system: H5N1 A/Kampung pasir/5744/2004; conditions: A/Kampung pasir/5744/2004, 48 h
[5] = test system: avian influenza A virus H9N2; conditions: cited from earlier work
H1N1 A/PR/8/1934 [6] = assay: microbe, parasite or virus in culture; conditions: Influenza A virus, MDCK, read-out: IC50 PR8

SMILES	% inhibition H3N8 (H3N8 A/Miami/2/63; 10 μM)	IC50 [1]	% inhibition H1N1 ([1]; 10 μM)	IC50 (H1N1 A/NY/18/2009)	% Inhibition Pdm 2009 (H1N1 A/NY/18/2009)	% inhibition H9N2 (H9N2 A/Iran/16/2000; 10 μM)	IC50 (H1N1 A/PR/8/1934 [2])	% Inhibition PR/8 (H1N1 A/PR/8/1934 [2])	IC50 (H3N2 A/HK/8/1968)	% inhibition H3N2 (H3N2 A/HK/8/1968; 10 μM)	IC50 (H3N8 A/Miami/2/63)	IC50 (H9N2 A/Iran/16/2000)	other results
CC[C@@H](C)[C@H]1NC(=O)[C@@H](Cc2ccccc2)NC(=O)[C@@H]([C@H](C)O)NC(=O)[C@@H](Cc2ccccc2)NC(=O)[C@@H](Cc2c[nH]c3ccccc23)NC(=O)[C@@H]([C@H](C)O)NC(=O)[C@H](NC(=O)[C@H](CCCCN)NC(=O)[C@H](CCCCN)NC(=O)[C@H](CCCNC(=N)N)NC(=O)[C@@H](N)CCCNC(=N)N)CSSC[C@H](C(=O)O)NC(=O)[C@@H](CC(N)=O)NC1=O [PSP IV A17, H-RRKKctwftfinc-OH] (H-RRKK[dC][dT][dW][dF][dT][dF][dI][dN][dC]-OH; disulfide 5-13)	97%	51 nM	91%	33 nM	97%	92%	260 nM	97%	56 nM	97%			% Inhibition (H1N1 A/PR/8/1934 [2]): <20%; IC50 [3]: 990 nM
CC[C@@H](C)[C@H]1NC(=O)[C@@H](Cc2ccccc2)NC(=O)[C@@H](Cc2ccccc2)NC(=O)[C@@H](Cc2ccccc2)NC(=O)[C@@H](Cc2c[nH]c3ccccc23)NC(=O)[C@@H]([C@H](C)O)NC(=O)[C@H](NC(=O)[C@H](CCCCN)NC(=O)[C@H](CCCCN)NC(=O)[C@H](CCCNC(=N)N)NC(=O)[C@@H](N)CCCNC(=N)N)CSSC[C@H](C(=O)O)NC(=O)[C@@H](CC(N)=O)NC1=O [PSP IV A5, H-RRKKctwfffinc-OH] (H-RRKK[dC][dT][dW][dF][dF][dF][dI][dN][dC]-OH; disulfide 5-13)	98%	300 nM	99%	1000 nM	98%	93%	400 nM	99%	300 nM	99%	300 nM	760 nM	IC50 [4]: 550 nM
CC[C@@H](C)[C@H]1NC(=O)[C@@H](Cc2ccccc2)NC(=O)[C@@H](Cc2c[nH]cn2)NC(=O)[C@@H](Cc2ccccc2)NC(=O)[C@@H](Cc2c[nH]c3ccccc23)NC(=O)[C@@H]([C@H](C)O)NC(=O)[C@H](NC(=O)[C@H](CCCCN)NC(=O)[C@H](CCCCN)NC(=O)[C@H](CCCNC(=N)N)NC(=O)[C@@H](N)CCCNC(=N)N)CSSC[C@H](C(=O)O)NC(=O)[C@@H](CC(N)=O)NC1=O [PSP IV A7, H-RRKKctwfhfinc-OH] (H-RRKK[dC][dT][dW][dF][dH][dF][dI][dN][dC]-OH; disulfide 5-13)	79%		68%		71%	65%		73%		80%			
C[C@@H](O)[C@@H]1NC(=O)[C@H](CCCCN)NC(=O)[C@H](CO)NC(=O)[C@H](CCCNC(=N)N)NC(=O)[C@H](Cc2ccccc2)NC(=O)[C@H](CC(=O)O)NC(=O)[C@H](CC(N)=O)NC(=O)[C@@H](N)CSSC[C@@H](C(=O)O)NC1=O [C-P1, H-CNDFRSKTC-OH, reference compound] (H-CNDFRSKTC-OH; disulfide 1-9)												> 320000 nM	inhibition of avian influenza A virus H9N2 replication [5]: modest efficacy
CC[C@@H](C)[C@H]1NC(=O)[C@@H](Cc2ccccc2)NC(=O)[C@@H]([C@H](C)O)NC(=O)[C@@H](Cc2ccccc2)NC(=O)[C@@H](Cc2c[nH]c3ccccc23)NC(=O)[C@@H](Cc2c[nH]c3ccccc23)NC(=O)[C@H](NC(=O)[C@H](CCCCN)NC(=O)[C@H](CCCCN)NC(=O)[C@H](CCCNC(=N)N)NC(=O)[C@@H](N)CCCNC(=N)N)CSSC[C@H](C(=O)O)NC(=O)[C@@H](C)NC1=O [PSP VI A1, H-RRKKcwwftfiac-OH] (H-RRKK[dC][dW][dW][dF][dT][dF][dI][dA][dC]-OH; disulfide 5-13)		5 nM		0.13 nM			4 nM		1.9 nM		2 nM	10.4 nM	% Inhibition (H1N1 A/PR/8/1934 [2]): 98.5%; IC50 [3]: 1.2 nM
CCC(CC)O[C@@H]1C=C(C(=O)O)C[C@H](N)[C@H]1NC(C)=O [Oseltamivir acid]													IC50 (H1N1 A/PR/8/1934 [6]): 140 nM
CC[C@@H](C)[C@H]1NC(=O)[C@@H](Cc2ccccc2)NC(=O)[C@@H](CO)NC(=O)[C@@H](Cc2ccccc2)NC(=O)[C@@H](Cc2c[nH]c3ccccc23)NC(=O)[C@@H]([C@H](C)O)NC(=O)[C@H](NC(=O)[C@H](CCCCN)NC(=O)[C@H](CCCCN)NC(=O)[C@H](CCCNC(=N)N)NC(=O)[C@@H](N)CCCNC(=N)N)CSSC[C@H](C(=O)O)NC(=O)[C@@H](CC(N)=O)NC1=O [PSP IV A16, H-RRKKctwfsfinc-OH] (H-RRKK[dC][dT][dW][dF][dS][dF][dI][dN][dC]-OH; disulfide 5-13)	93%		91%		81%	89%		78%		96%			
CC[C@@H](C)[C@H]1NC(=O)[C@@H](Cc2ccccc2)NC(=O)[C@@H](CC(C)C)NC(=O)[C@@H](Cc2ccccc2)NC(=O)[C@@H](Cc2c[nH]c3ccccc23)NC(=O)[C@@H]([C@H](C)O)NC(=O)[C@H](NC(=O)[C@H](CCCCN)NC(=O)[C@H](CCCCN)NC(=O)[C@H](CCCNC(=N)N)NC(=O)[C@@H](N)CCCNC(=N)N)CSSC[C@H](C(=O)O)NC(=O)[C@@H](CC(N)=O)NC1=O [PSP IV A10, H-RRKKctwflfinc-OH] (H-RRKK[dC][dT][dW][dF][dL][dF][dI][dN][dC]-OH; disulfide 5-13)	96%		90%		85%	97%		96%		96%			
CC[C@@H](C)[C@H]1NC(=O)[C@@H](Cc2ccccc2)NC(=O)[C@@H]([C@H](C)CC)NC(=O)[C@@H](Cc2ccccc2)NC(=O)[C@@H](Cc2c[nH]c3ccccc23)NC(=O)[C@@H]([C@H](C)O)NC(=O)[C@H](NC(=O)[C@H](CCCCN)NC(=O)[C@H](CCCCN)NC(=O)[C@H](CCCNC(=N)N)NC(=O)[C@@H](N)CCCNC(=N)N)CSSC[C@H](C(=O)O)NC(=O)[C@@H](CC(N)=O)NC1=O [PSP IV A8, H-RRKKctwfifinc-OH] (H-RRKK[dC][dT][dW][dF][dI][dF][dI][dN][dC]-OH; disulfide 5-13)	96%		92%		95%	92%		97%		96%			
CC[C@@H](C)[C@H]1NC(=O)[C@@H](Cc2ccccc2)NC(=O)[C@@H](CCCNC(=N)N)NC(=O)[C@@H](Cc2ccccc2)NC(=O)[C@@H](Cc2c[nH]c3ccccc23)NC(=O)[C@@H]([C@H](C)O)NC(=O)[C@H](NC(=O)[C@H](CCCCN)NC(=O)[C@H](CCCCN)NC(=O)[C@H](CCCNC(=N)N)NC(=O)[C@@H](N)CCCNC(=N)N)CSSC[C@H](C(=O)O)NC(=O)[C@@H](CC(N)=O)NC1=O [PSP III B5, H-RRKKctwfrfinc-OH] (H-RRKK[dC][dT][dW][dF][dR][dF][dI][dN][dC]-OH; disulfide 5-13)	92%	1600 nM	80%	1170 nM	73%	76%	1200 nM	88%	1400 nM	87%	150 nM	900 nM	% inhibition H3N8 (H3N8 A/Miami/2/63; 50 μM): 100%; IC50 [4]: 220 nM; % inhibition H1N1 ([1]; 50 μM): 96%; % inhibition H9N2 (H9N2 A/Iran/16/2000; 50 μM): 90%; % inhibition H3N2 (H3N2 A/HK/8/1968; 50 μM): 100%
